Target: T1, KshB (Mycolicibacterium neoaurum, UniProt D2Y640)
T1 construct: gene kstR; pMA5-kshB primer R1 carries no His-tag
Assay: dichlorophenolindophenol reduction assay
Format: biochemical
Conditions: 0.25 mM NADH, 0.1 mM 2,6-dichlorophenolindophenol, 50 mM Tris-HCl pH 7.0, room temperature; electron donor; data not shown

T1 sequence (D2Y640 entry or part of it): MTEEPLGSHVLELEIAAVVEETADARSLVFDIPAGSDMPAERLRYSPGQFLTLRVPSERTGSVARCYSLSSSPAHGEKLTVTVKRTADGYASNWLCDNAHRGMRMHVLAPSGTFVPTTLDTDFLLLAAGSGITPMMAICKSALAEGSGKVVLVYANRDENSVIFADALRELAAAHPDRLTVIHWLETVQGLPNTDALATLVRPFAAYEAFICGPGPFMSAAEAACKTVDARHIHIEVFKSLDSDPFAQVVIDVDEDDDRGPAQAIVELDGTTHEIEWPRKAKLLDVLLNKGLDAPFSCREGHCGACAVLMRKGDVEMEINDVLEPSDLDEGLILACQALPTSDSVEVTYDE

NC(=O)C1=CN([C@@H]2O[C@H](COP(=O)(O)OP(=O)(O)OC[C@H]3O[C@@H](n4cnc5c(N)ncnc54)[C@H](O)[C@@H]3O)[C@@H](O)[C@H]2O)C=CC1 [NADH]
dichlorophenolindophenol reduction assay: accepts electrons from NAD(P)H and transfers it to oxygenase component KshA

Reference: article PMC4967059, “Efficient 9α-hydroxy-4-androstene-3,17-dione production by engineered Bacillus subtilis co-expressing Mycobacterium neoaurum 3-ketosteroid 9α-hydroxylase and B. subtilis glucose 1-dehydrogenase with NADH regeneration” (SpringerPlus, 2016)
